In patent US8557272B2, “Device for local and/or regional delivery employing liquid formulations of therapeutic agents” (Cordis Corporation, priority 2004, dated 2013):
Blank lines part the entries; values can stand above or below the molecule they belong to.

How the values were obtained:
[1] = Drug concentration in liquid formulations (liquid chromatography, HPLC assay); assay type: physicochemical
[2] = test system: human coronary artery smooth muscle cells; test: Anti-proliferative activity in non-synchronized cultured human coronary artery smooth muscle cells stimulated with two percent fetal bovine serum; assay type: cell-based; settings: agent added to cells treated with rapamycin
Source text: The multiple curves represent various concentrations of mycophenolic acid ranging from zero to one thousand nanomolar concentrations.
FIG. 58 illustrates, in graphical format, the anti-proliferative activity of cladribine in non-synchronized cultured human coronary artery smooth muscle cells stimulated with two percent fetal bovine serum.
The multiple curves represent various concentrations of cladribine ranging from zero to nine hundred nanomolar concentrations.

[3] = test system: human coronary artery smooth muscle cells; test: Antiproliferative effects of PX867 on cultured human coronary artery smooth muscle cells; assay type: cell-based
Source text: A PI3 kinase inhibitor can affect restinosis when administered by local or systemic delivery alone or in combination with sirolimus. FIGS. 87 and 88 illustrate the antiproliferative effects of PX867 on cultured human coronary artery smooth muscle cells alone (FIG. 87) or in combination with sirolimus (FIG. 88). […] Curve 8702 illustrates the percent inhibition for various concentrations. In FIG. 88, the six curves 8802, 8804, 8806, 8808, 8810 and 8812 represent various concentrations of PX867 with various concentrations of sirolimus. […] More specifically, curve 8812 illustrates the percent inhibition for a 240 nM PX-867 concentration. […] This may be compared to curve 8804 which represents a 15 nM PX-867 concentration. As one can see, the percent inhibition increases as the concentration of sirolimus increases. Accordingly, a potent PI3 kinase inhibitor, such as PX-867, can improve the inhibition of coronary artery smooth muscle cell proliferation either as a stand alone treatment or via combination with another restenotic agent, such as sirolimus.

[4] = test system: human coronary artery smooth muscle cells; test: Anti-proliferative activity in synchronized cultured human coronary artery smooth muscle cells stimulated with two percent fetal bovine serum; assay type: cell-based; settings: for effect of the added agent on the anti-proliferative rapamycin dose response curve: agent added to cells treated with rapamycin
Source text: (§1) The multiple curves represent various concentrations of topotecan ranging from zero to three hundred nanomolar concentrations.
(§2) The multiple curves represent various concentrations of etoposide ranging from zero to eight hundred nanomolar concentrations.
The multiple curves represent various concentrations of Panzem® ranging from zero to 100 micromolar concentrations.

[5] = test system: human coronary artery smooth muscle cell; test: MTS assay of Panzem®; assay type: cell-based; settings: concentrations up to 30,000.00 nanomolar
Source text: Typically, a control is utilized to determine baseline toxicity.

[6] = In vitro release of sirolimus and cilostazol from stent coating; assay type: physicochemical; settings: single-layer configuration of FIG. 83
[7] = Porcine drug elution PK study of the dual drug eluting coating; assay type: in vivo; settings: after eight (8) days of implantation; single-layer configuration of FIG. 83
Source text: Another critical parameter for the performance of the thrombus resistance of a device coated with cilostazol is the duration of the drug release from the coating. This is of particular significance in the two weeks after device implantation. In the porcine drug elution PK studies of the dual drug eluting coating, both cilostazol and sirolius were slowly released from the coating, resulting in a sustained drug release profile. The purpose of the porcine PK study is to assess the local pharmacokinetics of a drug eluting stent at a given implantation time. Normally three stents are implanted in three different coronary arteries in a pig for a given time point and then retrieved for total drug recovery analysis. The stents are retrieved at predetermined time points; namely, 1, 3 and 8 days. The stents are extracted and the total amount of drug remaining on the stents is determined by analysis utilizing HPLC (high performance liquid chromatography) for total drug amount. The difference between the original amount of drug on the stent and the amount of drug retrieved at a given time represents the amount of drug released in that period. The continuous release of drug into surrounding arterial tissue is what prevents the neointimal growth and restenosis in the coronary artery. A normal plot represents the percentage of total drug released (%, y-axis) vs. time of implantation (day, x-axis). […]

[8] = Cell viability assay (cytotoxicity); assay type: cell-based
Source text: as §1, §2

[9] = Experimental: The concentrations are determined by liquid chromatography and are presented as weight by volume figures.
In making the first formulation, 100 mg of paclitaxel is added to 400 μl of ethanol in a pre-weighed 20 ml scintillation vial. The mixture of paclitaxel and ethanol is vortexed and heated in a 60 degree C. bath for ten minutes. Once the drug is completely solubilized, 20 ml of PEG 400 is then added to make the final paclitaxel concentration 5 mg/ml. […] In a separate experiment, a series of 20 ml scintillation vials containing Vitamin E TPGS are heated or warmed up in a 50 degree C. water bath for ten minutes. Concurrently, distilled water is also warmed in a 50 degree C. water bath. Once the Vitamin E TPGS was melted in each vial, the distilled water is added into the Vitamin E TPGS vials and vortexed for one minute and left to stand in the water bath for two hours. The final concentrations of Vitamin E TPGS in water were one, five and fifteen percent. The paclitaxel stock solution (5 mg/ml) described herein was then mixed with the Vitamin E TPGS solutions to make the final paclitaxel formulations.

[10] = test system: human coronary artery smooth muscle cell; test: Inhibition of human coronary artery smooth muscle cell proliferation by trichostatin A, cell culture; assay type: cell-based; settings: in vitro cell culture; read-out: anti-proliferative IC50
Source text: FIG. 51 is a graph of the inhibition of coronary artery smooth muscle cells by trichostatin A in a cell culture study.

tumor cell lines = settings: Woo et al. 2002; cited from earlier work

concentration in the final solution (HPLC assay) ([1]; ethanol, Vitamin E TPGS and water, ethanol less than two percent): 15000 µg/mL
SMILES: CO[C@H]1C[C@@H]2CC[C@@H](C)[C@@](O)(O2)C(=O)C(=O)N2CCCC[C@H]2C(=O)O[C@H]([C@H](C)C[C@@H]2CC[C@@H](OC(=O)C(C)(CO)CO)[C@H](OC)C2)CC(=O)[C@H](C)/C=C(\C)[C@@H](O)[C@@H](OC)C(=O)[C@H](C)C[C@H](C)/C=C/C=C/C=C/1C [CCI-779]

SMILES: Nc1nc(Cl)nc2c1ncn2[C@H]1C[C@H](O)[C@@H](CO)O1 [Cladribine, 2-chlorodeoxyadenosine]
effect of the added agent on the anti-proliferative rapamycin dose response curve [2]: potentiate the anti-proliferative activity of rapamycin

SMILES: COC[C@H]1OC(=O)/C(=C\N2CCCC2)C2=C(O)C(=O)C3=C([C@H](OC(C)=O)C[C@]4(C)C(=O)CC[C@@H]34)[C@]21C [PX-867]
inhibition of coronary artery smooth muscle cell proliferation ([3]; PX867 alone, concentration of about 10^−6): close to one hundred percent inhibition
combination effect with sirolimus on percent inhibition ([3]; PX-867 15-240 nM with various concentrations of sirolimus): strong synergistic effect between PX-867 and sirolimus

SMILES: COc1cc2c(cc1O)CC[C@@H]1[C@@H]2CC[C@]2(C)[C@@H](O)CC[C@@H]12 [Panzem®, 2-methoxyestradiol]
effect of the added agent on the anti-proliferative rapamycin dose response curve [4]: increases the percent of inhibition of rapamycin alone
inhibition of human coronary artery smooth muscle cell proliferation in vitro ([4]; agent alone): extremely effective inhibitor
human coronary artery smooth muscle cell survival (MTS assay) [5]: do not reduce human coronary artery smooth muscle cell survival

SMILES: O=C1CCc2cc(OCCCCc3nnnn3C3CCCCC3)ccc2N1 [cilostazol, 6[4-(1-cyclohexyl-1H-tetrazol-5-yl)-butoxy]-3,4-dihydro-2-(1H)-quinolinone]
in vitro release from the coating [6]: ~35%
drug remaining in the drug coating [7]: ~80%

SMILES: COc1cc([C@@H]2c3cc4c(cc3[C@@H](O[C@@H]3O[C@@H]5CO[C@@H](C)O[C@H]5[C@H](O)[C@H]3O)[C@H]3COC(=O)[C@H]23)OCO4)cc(OC)c1O [etoposide]
effect of the added agent on the anti-proliferative rapamycin dose response curve [2]: potentiate the anti-proliferative activity of rapamycin
cytotoxicity in cell viability assay ([8]; at concentrations up to ten micromolar): non-cytotoxic

SMILES: COc1c(C)c2c(c(O)c1C/C=C(\C)CCC(=O)O)C(=O)OC2 [mycophenolic acid]
effect of the added agent on the anti-proliferative rapamycin dose response curve [2]: potentiates the anti-proliferative activity of rapamycin

concentration of paclitaxel in a true liquid formulation [9]: up to 2.5 mg/ml
concentration relative to the solubility of paclitaxel in water [9]: about 1000 fold
SMILES: CC(=O)O[C@H]1C(=O)[C@@]2(C)[C@H]([C@H](OC(=O)c3ccccc3)[C@]3(O)C[C@H](OC(=O)[C@H](O)[C@@H](NC(=O)c4ccccc4)c4ccccc4)C(C)=C1C3(C)C)[C@]1(OC(C)=O)CO[C@@H]1C[C@@H]2O [paclitaxel]

drug remaining in the drug coating [7]: ~80%
SMILES: CO[C@H]1C[C@@H]2CC[C@@H](C)[C@@](O)(O2)C(=O)C(=O)N2CCCC[C@H]2C(=O)O[C@H]([C@H](C)C[C@@H]2CC[C@@H](O)[C@H](OC)C2)CC(=O)[C@H](C)/C=C(\C)[C@@H](O)[C@@H](OC)C(=O)[C@H](C)C[C@H](C)/C=C/C=C/C=C/1C [rapamycin]
concentration relative to the solubility of sirolimus in water ([1]; 4 mg/ml liquid formulation with PEG 200): about four hundred to about one thousand times higher

SMILES: CC[C@@]1(O)C(=O)OCc2c1cc1n(c2=O)Cc2cc3c(CN(C)C)c(O)ccc3nc2-1 [topotecan]
effect of the added agent on the anti-proliferative rapamycin dose response curve [4]: potentiate the anti-proliferative activity of rapamycin
cytotoxicity in cell viability assay ([8]; at concentrations up to one micromolar): non-cytotoxic

SMILES: CC(/C=C/C(=O)NO)=C\[C@@H](C)C(=O)c1ccc(N(C)C)cc1 [trichostatin A]
IC50 [10]: ~6 nM
anti-proliferative IC50's (tumor cell lines): low nM range
